Laboratory results reported in paper PMC7403315, “Cyclic peptide FXII inhibitor provides safe anticoagulation in a thrombosis model and in artificial lungs” (Nature Communications, 2020).
“And” between values parts separate entries of the source, which are not always exact repeats. Identical values can stand only once. Starred links: 1 amine or outer side, 2 acyl side, 3 side chain; linkers in the order of their positions; H or OH if unused. Positions of bridges follow the written chain, without caps; N, C: chain ends. Non-standard residues stand in square brackets, D forms with d. Residues, ends and D or L forms follow the SMILES beside them. TATA = O=C(CC[*:1])N1CN(C(=O)CC[*:2])CN(C(=O)CC[*:3])C1; Phe(4-F) = N[C@@H](Cc1ccc(F)cc1)C(=O)O; β3hR = N=C(N)NCCC[C@H](N)CC(=O)O

Key:
Assay in all cases: Specificity profiling, residual protease activity
Type in all cases: biochemical
[1] = target: T1, factor VIIa (Homo sapiens, UniProt P08709)
T1 construct: (Molecular Innovations) 0.05 nM, factor VIIa (Haematologic Technologies) 50 nM, factor Xa; purchased Haematologic Technologies
T1 sequence (P08709 213-466 limits assumed): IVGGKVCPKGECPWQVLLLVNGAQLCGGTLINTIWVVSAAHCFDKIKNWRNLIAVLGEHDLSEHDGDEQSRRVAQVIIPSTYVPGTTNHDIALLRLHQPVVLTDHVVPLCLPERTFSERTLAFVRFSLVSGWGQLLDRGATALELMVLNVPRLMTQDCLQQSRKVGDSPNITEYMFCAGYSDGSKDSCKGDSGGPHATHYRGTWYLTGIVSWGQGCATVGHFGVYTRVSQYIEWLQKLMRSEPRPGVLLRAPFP
T1 sequence (P08709 61-212 limits assumed): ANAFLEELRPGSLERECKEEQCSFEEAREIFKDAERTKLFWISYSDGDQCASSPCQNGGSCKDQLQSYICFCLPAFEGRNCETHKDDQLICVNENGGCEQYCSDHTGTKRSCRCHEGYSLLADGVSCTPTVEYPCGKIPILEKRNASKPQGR
Method: (§1) Protease inhibition assays
(§2) The inhibitory activity of peptides was determined by measuring the residual protease activity with a fluorogenic substrate. The assay was performed in buffer containing 10 mM Tris-Cl, pH […]
(§3) 1% (v/v) DMSO in a volume of 150 µl. […]
(§4) HFXIIAB) were used at final concentrations of 0.4 nM. The reaction was pipetted as follows: 50 µl of bicyclic peptide in assay buffer were added to 50 µl of FXIIa in assay buffer and incubated for 10 minutes at 25°C before 50 µl of 150 µM fluorogenic substrate in assay buffer were added to measure the residual protease activity with an Infinite M200Pro fluorescence plate reader (excitation at 368 nm, emission at 467 nm; Tecan) for a period of 30 minutes with a read every minute at 25°C. The Tecan software i-control (version 1.1) was used for data analysis. Stock solutions of 1 mM bicyclic peptide were prepared by either dissolving the unpurified cyclization reaction with water or by dissolving purified and lyophilized peptide in water. The bicyclic peptides were serially diluted two-fold using assay buffer. Sigmoidal curves were fitted to the data using the following dose response equation (1), wherein x = peptide concentration, y = % protease activity, and p = Hill slope. IC50 values were derived from the fitted curve.
(§5) The inhibition constants (Ki) were calculated according to the equation of Cheng and Prusoff, Ki = IC50/(1+([S]0/Km), wherein IC50 is the functional strength of the inhibitor, [S]0 is the total substrate concentration, and Km is the Michaelis-Menten constant. […]
(§6) For testing the specificity of the bicyclic peptides, the following final concentrations of human serine proteases were used: tPA (Molecular Innovations) 7.5 nM, uPA (Molecular Innovations) 1.5 nM, factor XIa (Innovative Research) 6 nM, plasma kallikrein (Innovative Research) 0.25 nM, thrombin (Molecular Innovations) 1 nM, plasmin (Molecular Innovations) 2.5 nM, trypsin (Molecular Innovations) 0.05 nM, factor VIIa (Haematologic Technologies) 50 nM, factor Xa […]
(§7) (Haematologic Technologies) 6 nM, and activated protein C (APC) 5 nM. Two-fold dilutions of the peptide were prepared that ranged from 0.04 to 40 µM. The following fluorogenic substrates were used at a final concentration of 50 µM: Z-Phe-Arg-AMC (Bachem) for plasma kallikrein; Boc-Phe-Ser-Arg-AMC (Bachem) for factor XIa; Z-Gly-Gly-Arg-AMC (Bachem) for tPA, uPA, thrombin, and trypsin; H-D-Val-Leu-Lys-AMC (Bachem) for plasmin; and D-Phe-Pro-Arg-ANSNH-C4H9 (Haematologic Technologies) for FVIIa and FXa. For APC, the chromogenic substrate pyroGlu-Pro-Arg-pNA (S2366) was used at a concentration of 400 µM. […]

[2] = target: T2, factor Xa (Homo sapiens, UniProt P00742)
T2 construct: (Molecular Innovations) 0.05 nM, factor VIIa (Haematologic Technologies) 50 nM, factor Xa; purchased Haematologic Technologies
T2 sequence (P00742 235-488 limits assumed): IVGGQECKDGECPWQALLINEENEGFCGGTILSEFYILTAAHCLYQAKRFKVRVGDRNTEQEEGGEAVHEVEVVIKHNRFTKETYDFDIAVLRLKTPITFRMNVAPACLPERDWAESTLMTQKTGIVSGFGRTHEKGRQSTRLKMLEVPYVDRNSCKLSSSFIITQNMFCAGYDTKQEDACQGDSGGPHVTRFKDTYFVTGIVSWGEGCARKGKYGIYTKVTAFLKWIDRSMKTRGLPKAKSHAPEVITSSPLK
T2 sequence (P00742 41-179 limits assumed): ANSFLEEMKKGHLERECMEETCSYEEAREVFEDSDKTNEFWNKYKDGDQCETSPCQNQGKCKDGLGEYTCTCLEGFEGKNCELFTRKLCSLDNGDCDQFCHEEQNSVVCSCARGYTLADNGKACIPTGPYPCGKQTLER
Method: as §1, §2, §3, §4, §5, §6, §7

[3] = target: T3, plasmin (Homo sapiens, UniProt P00747)
T3 construct: nM, thrombin (Molecular Innovations) 1 nM, plasmin (Molecular Innovations) 2.5 nM, trypsin; purchased Molecular Innovations
T3 sequence (P00747 581-810 limits assumed): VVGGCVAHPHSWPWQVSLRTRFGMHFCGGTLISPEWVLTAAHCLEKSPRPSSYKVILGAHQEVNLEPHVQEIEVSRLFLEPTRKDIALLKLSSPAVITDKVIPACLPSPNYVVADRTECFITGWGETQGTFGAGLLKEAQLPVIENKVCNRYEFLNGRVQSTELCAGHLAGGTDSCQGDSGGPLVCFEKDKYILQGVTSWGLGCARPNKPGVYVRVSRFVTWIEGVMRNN
T3 sequence (P00747 97-580 limits assumed): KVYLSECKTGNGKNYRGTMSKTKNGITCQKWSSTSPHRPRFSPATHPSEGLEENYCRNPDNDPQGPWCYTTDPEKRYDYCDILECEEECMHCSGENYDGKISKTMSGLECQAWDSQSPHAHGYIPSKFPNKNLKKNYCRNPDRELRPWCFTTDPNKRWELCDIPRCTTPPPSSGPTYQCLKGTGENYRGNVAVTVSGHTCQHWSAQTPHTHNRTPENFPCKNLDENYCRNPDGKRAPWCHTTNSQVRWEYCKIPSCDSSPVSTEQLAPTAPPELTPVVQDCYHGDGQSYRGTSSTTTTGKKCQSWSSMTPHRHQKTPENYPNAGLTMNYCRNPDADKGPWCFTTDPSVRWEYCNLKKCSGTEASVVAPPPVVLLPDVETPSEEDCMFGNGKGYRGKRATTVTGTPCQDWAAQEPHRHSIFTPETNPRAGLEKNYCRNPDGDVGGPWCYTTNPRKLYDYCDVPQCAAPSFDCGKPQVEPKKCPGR
Method: as §1, §2, §3, §4, §5, §6, §7

[4] = target: T4, uPA (Homo sapiens, UniProt P00749)
T4 construct: purchased Molecular Innovations
Method: as §1, §2, §3, §4, §5, §6, §7

[5] = inhibitor 40000 nM (40 µM), 40 µM
[6] = inhibitor 39.0625 nM, 0.0390625 µM
[7] = inhibitor 78.125 nM, 0.078125 µM
[8] = inhibitor 156.25 nM, 0.15625 µM

## CC(C)C[C@@H]1NC(=O)[C@H](CCC(N)=O)NC(=O)[C@H](Cc2c[nH]cn2)NC(=O)[C@@H]2CSCCC(=O)N3CN(CN(C3)C(=O)CCSC[C@H](NC(=O)[C@@H](CO)NC(=O)[C@H](N)CCCNC(=N)N)C(=O)N[C@@H](Cc3ccc(F)cc3)C(=O)N[C@@H](CCCNC(=N)N)C(=O)N[C@@H](CC(C)C)C(=O)N3CCC[C@H]3C(=O)N2)C(=O)CCSC[C@@H](C(N)=O)NC(=O)C[C@H](CCCNC(=N)N)NC1=O [FXII900] (H-[dR][dS]C[Phe(4-F)]RLPCHQL[β3hR]C-NH2; linker 3-8-13 via TATA)
[1]; inhibitor 5000 nM, 5 µM
  Residual activity of FVIIa: 109.299%
[1]; inhibitor 5000 nM, read-out: Residual activity of FVIIa
  remaining activity at 5 µM: 108%
[1]; inhibitor 10000 nM, 10 µM
  Residual activity of FVIIa: 109.026%
[1]; inhibitor 10000 nM, read-out: Residual activity of FVIIa
  remaining activity at 10 µM: 107%
[1]; inhibitor 20000 nM, 20 µM
  Residual activity of FVIIa: 101.426%
[1]; inhibitor 20000 nM, read-out: Residual activity of FVIIa
  remaining activity at 20 µM: 101%
[1]; [5]
  Residual activity of FVIIa: 102.615% and 96.13%
[1]; inhibitor 40000 nM (40 µM), read-out: Residual activity of FVIIa
  remaining activity at 40 µM: 97.1%
[1]; read-out: Ki FVIIa
  Ki: > 40 µM
[2]; [6]
  Residual activity of FXa: 101.787%
[2]; inhibitor 39.0625 nM, read-out: Residual activity of FXa
  remaining activity at 0.0390625 µM: 94.8%
[2]; [7]
  Residual activity of FXa: 97.2913%
[2]; inhibitor 78.125 nM, read-out: Residual activity of FXa
  remaining activity at 0.078125 µM: 93.4%
[2]; [8]
  Residual activity of FXa: 100.804%
[2]; inhibitor 156.25 nM, read-out: Residual activity of FXa
  remaining activity at 0.15625 µM: 97.6%
[2]; inhibitor 312.5 nM, 0.3125 µM
  Residual activity of FXa: 95.4335%
[2]; inhibitor 312.5 nM, read-out: Residual activity of FXa
  remaining activity at 0.3125 µM: 95.1%
[2]; inhibitor 625 nM, 0.625 µM
  Residual activity of FXa: 101.673%
[2]; inhibitor 625 nM, read-out: Residual activity of FXa
  remaining activity at 0.625 µM: 97.6%
[2]; inhibitor 1250 nM, 1.25 µM
  Residual activity of FXa: 99.2096%
[2]; inhibitor 1250 nM, read-out: Residual activity of FXa
  remaining activity at 1.25 µM: 99.4%
[2]; inhibitor 2500 nM, […]
  Residual activity of FXa: 104.071%
[2]; inhibitor 2500 nM, read-out: Residual activity of FXa
  remaining activity at […]: 98.3%
[2]; inhibitor 5000 nM, 5 µM
  Residual activity of FXa: 101.691%
[2]; inhibitor 5000 nM, read-out: Residual activity of FXa
  remaining activity at 5 µM: 94.7%
[2]; inhibitor 10000 nM, 10 µM
  Residual activity of FXa: 102.146%
[2]; inhibitor 10000 nM, read-out: Residual activity of FXa
  remaining activity at 10 µM: 99.4%
[2]; inhibitor 20000 nM, 20 µM
  Residual activity of FXa: 104.386%
[2]; inhibitor 20000 nM, read-out: Residual activity of FXa
  remaining activity at 20 µM: 94.7%
[2]; [5]
  Residual activity of FXa: 96.1187% and 97.9911%
[2]; inhibitor 40000 nM (40 µM), read-out: Residual activity of FXa
  remaining activity at 40 µM: 97.1%
[2]; read-out: Ki FXa
  Ki: > 40 µM
[3]
  Ki: > 40 µM
[3]; inhibitor 39.0625 nM
  remaining activity at 0.0390625 µM: 101%
[3]; [6]
  Residual activity of Plasmin: 100% and 98.04%
[3]; inhibitor 78.125 nM
  remaining activity at 0.078125 µM: 99.7%
[3]; [7]
  Residual activity of Plasmin: 92.966% and 98.2808%
[3]; inhibitor 156.25 nM
  remaining activity at 0.15625 µM: 99.4%
[3]; [8]
  Residual activity of Plasmin: 100.413% and 98.2682%
[3]; inhibitor 312.5 nM
  remaining activity at 0.3125 µM: 98.2%
[3]; inhibitor 312.5 nM, 0.3125 µM
  Residual activity of Plasmin: 95.1408% and 95.4545%
[3]; inhibitor 625 nM
  remaining activity at 0.625 µM: 98.8%
[3]; inhibitor 625 nM, 0.625 µM
  Residual activity of Plasmin: 96.2495% and 97.8119%
[3]; inhibitor 1250 nM
  remaining activity at 1.25 µM: 95.1%
[3]; inhibitor 1250 nM, 1.25 µM
  Residual activity of Plasmin: 99.629% and 97.1835%
[3]; inhibitor 2500 nM
  remaining activity at […]: 92%
[3]; inhibitor 5000 nM
  remaining activity at 5 µM: 96%
[3]; inhibitor 5000 nM, 5 µM
  Residual activity of Plasmin: 97.8045% and 97.3192%
[3]; inhibitor 10000 nM
  remaining activity at 10 µM: 93.7%
[3]; inhibitor 10000 nM, 10 µM
  Residual activity of Plasmin: 101.477% and 94.8276%
[3]; inhibitor 20000 nM
  remaining activity at 20 µM: 87.5%
[3]; inhibitor 20000 nM, 20 µM
  Residual activity of Plasmin: 91.7224% and 90.5875%
[3]; inhibitor 40000 nM (40 µM)
  remaining activity at 40 µM: 86 ± 5%
[3]; [5]
  Residual activity of Plasmin: 82.6102% and 91.6986% and 84.2986%
[4]
  Ki: > 40 µM
[4]; inhibitor 39.0625 nM
  remaining activity at 0.0390625 µM: 96.1%
[4]; [6]
  Residual activity of uPa: 99.3438%
[4]; inhibitor 78.125 nM
  remaining activity at 0.078125 µM: 94.9%
[4]; [7]
  Residual activity of uPa: 99.5842%
[4]; inhibitor 156.25 nM
  remaining activity at 0.15625 µM: 99.6%
[4]; [8]
  Residual activity of uPa: 106.929%
[4]; inhibitor 312.5 nM
  remaining activity at 0.3125 µM: 98.2%
[4]; inhibitor 312.5 nM, 0.3125 µM
  Residual activity of uPa: 103.987%
[4]; inhibitor 625 nM
  remaining activity at 0.625 µM: 98.8%
[4]; inhibitor 625 nM, 0.625 µM
  Residual activity of uPa: 103.035%
[4]; inhibitor 1250 nM
  remaining activity at 1.25 µM: 100%
[4]; inhibitor 1250 nM, 1.25 µM
  Residual activity of uPa: 106.211%
[4]; inhibitor 2500 nM
  remaining activity at […]: 101%
[4]; inhibitor 2500 nM, […]
  Residual activity of uPa: 90.2133%
[4]; inhibitor 5000 nM
  remaining activity at 5 µM: 99.4%
[4]; inhibitor 5000 nM, 5 µM
  Residual activity of uPa: 106.237%
[4]; inhibitor 10000 nM
  remaining activity at 10 µM: 96.6%
[4]; inhibitor 10000 nM, 10 µM
  Residual activity of uPa: 102.075%
[4]; inhibitor 20000 nM
  remaining activity at 20 µM: 96.3%
[4]; inhibitor 20000 nM, 20 µM
  Residual activity of uPa: 101.698%
[4]; inhibitor 40000 nM (40 µM)
  remaining activity at 40 µM: 98.7%
[4]; [5]
  Residual activity of uPa: 97.4594% and 105.626%
